Series [1] can be described thus: Photostability of the dye. It counts as physicochemical.
In series [2] the test system is HeLa cells fixed in 4% paraformaldehyde. Kind of series: Staining of fixed cells with Compound 36. It counts as cell-based. To be noted: 10 uM in blocking buffer, 10 minutes, Cy3 channel. The procedure: The high photostability and relatively long emission wavelength (˜565 nm) make the dye a useful cell counterstain. HeLa cells were plated on an 8-chambered Lab-Tek cover glass at 4×10^4 cells per chamber and cultured overnight. The day after plating, the cells were fixed in 4% paraformaldehyde/PBS for 15 minutes at room temperature. The cells were rinsed in PBS and blocked in PBS containing 5% normal goat serum and 0.1% Triton X-100 for 30 minutes at room temperature. Cells were stained with 10 uM Dye 36 in blocking buffer for 10 minutes at room temperature and imaged in the same solution by confocal microscopy in the Cy3 channel of a Zeiss LSM 700 confocal microscope.

In another series the test system is calf thymus dsDNA. Briefly: Absorption and emission spectra of nucleic acid binding dyes. It is filed as physicochemical. The procedure:
All absorption spectra were measured on a Beckman Coulter DU-800 spectrophotometer at room temperature. All fluorescence spectra were measured on a Hitachi F-4500 fluorescence spectrophotometer at room temperature. To record the complete emission profiles, excitation wavelengths were set 30 nm shorter than the absorption maxima of the dyes. The dsDNA used was calf thymus dsDNA from Sigma. When dsDNA was present in the dye solutions, spectra were recorded after the dyes had been incubated with the DNA for at least 10 minutes.

The test system of another series is calf thymus DNA. Kind of series: DNA quantitation in solution (fluorescence linearity). The procedure:
compounds 5, 7 and related compounds according to the invention can be used to quantitate double-stranded DNA in solution with high sensitivity and accuracy over a wide range of DNA concentrations, as shown in FIGS. 4 and 5. […] At […] dye concentration, compound 5 fluorescence is linear from 0.04-250 ng (FIG. 5).
The data shown in FIG. 4A was obtained under the following conditions: compound 7 at 0.5 μM was prepared in TE buffer (10 mM Tris, 1 mM EDTA, pH 7.5), and pipetted into wells of black 96-well plates at 200 μL per well. Two-fold dilutions of calf thymus DNA were prepared in TE buffer starting at 0.2 ng/uL, and 10 μL of each DNA dilution was added per 96 well to obtain a standard curve of 2 ng to 0.015 ng per well. The plates were incubated for five minutes at room temperature, protected from light, then read at 468 nm excitation and 507 nm emission using a Molecular Devices Gemini XS fluorescent plate reader. Triplicate samples were averaged and background fluorescence (no DNA) was subtracted. Fluorescence values were plotted against the DNA amount (ng/well). […] The R^2 values for linear regression are shown next to each curve. The data shown in FIG. 4B were obtained under similar condition except that compound 5 at 1 uM was used and serial DNA dilutions were from 250 ng to 0.04 ng.

In a further series the test system is live HeLa cells. Kind of series: Staining of live cells. It is filed as cell-based. To be noted: 10 uM, 30 minutes at 37 C. The procedure: (§1) The images in the top panel of FIG. 6 were obtained under the following conditions: live HeLa cells were incubated with 10 uM compound 7, compound 8, or Dye 5 for 30 minutes at 37 C in a CO2 incubator. The images in the bottom panel of FIG. 6 were obtained under the following conditions: HeLa cells were formaldehyde-fixed, permeabilized, and blocked according to standard immunofluorescence staining protocols. Cell were stained with 10 μM compound 7, 8 or 5 in PBS/5% BSA for 30 minutes, then washed with PBS buffer and imaged. Live and fixed cells were imaged using an Olympus epifluorescence microscope equipped with a FITC filter set, Retiga 2000R Fast 1394 camera (QImaging), and Image-Pro Express software (Media Cybernetics).

The test system of series [3] is HeLa cells formaldehyde-fixed, permeabilized. Briefly: Staining of fixed cells. It is filed as cell-based. The conditions noted are these: 10 μM in PBS/5% BSA, 30 minutes. How it is done:
as §1

Series [4] concerns CD3e PCR products (WT or single base pair change). Briefly: High-resolution melt curve analysis (HRM). Set-up: species or system human. To be noted: compound 7 (0.07 μM) spiked into EvaGreen Master Mix. The source says:
The addition of a small amount of compound 7 to existing real time HRM Master Mixes can improve the resolution of the melting curves leading to higher confidence calls by HRM software. FIGS. 12 and 13 show normalized graphs (12A, 13A) and difference graphs (12B, 13B) from the HRM analysis of PCR products generated from template plasmids containing either a WT copy of CD3e or a version with a single base pair change. The genotype calls of the HRM software are also shown (12C, 13C).
The data in FIGS. 12 and 13 were collected under the following conditions: PCR reactions were performed as in FIG. 10 with 500 nM CD3e Forward primer (5′-[…]-3′) and […] CD3e Reverse primer (5′-[…]-3′). To each reaction, one microliter of approximately 1×10^6 copies/μl pME-human CD3e-6× His-HA was added, either with a wild type (WT) sequence or with a single nucleotide change (C to T) at base 54 from the start codon of the CD3e sequence. HRM analysis was performed on the RotorGeneQ immediately following template amplification from a temperature range of 76.5-86.5° C. ramping 0.1° C. every two seconds after initial 90 second pre-melt conditioning.

In series [5] the test system is linearized GAPDH-containing plasmid DNA. Kind of series: Real-time PCR with plasmid DNA. To be noted: 0.34 uM dye, 5×10^5 copies plasmid. The procedure: Compound 7 and related dyes can be used in real time PCR experiments to monitor amplification of target plasmid DNA. In FIG. 8, 5×10^5 copies of linearized GAPDH-containing plasmid DNA or water (non-template controls, NTC) were added to PCR reaction mixes containing 0.34 uM of either SYBR Green I (lines with solid diamonds (DNA) or “x's” (water)) or Compound 7 (lines with triangles (DNA) or circles (water)) and real time PCR was performed. […] The data in FIG. 8 were collected under the following conditions: PCR reactions consisted of a final concentration of 50 mM Tris-HCl (pH 8.6), 3 mM MgCl2, 50 μg/ml non-acetylated BSA (Sigma), 200 μM dNTPs (New England BioLabs), 500 nM GAPDH Forward primer ([NT]), 500 nM GAPDH Reverse primer ([NT]) (Integrated DNA Technologies), 1 U Hot-Start Cheetah Taq (Biotium, Inc.) and either 0.34 uM SYBR Green I (Life Technologies) or 0.34 uM compound 7. One microliter of 5×10^5 copies linearized pCMV-SPORT6 GAPDH plasmid (Open Biosystems) was added to each 20 ul reaction. Real time PCR was performed using the RotorGeneQ with the following cycling conditions: 95° C. for 2 minutes, followed by 45 cycles of 95° C. for 5 seconds and 60° C. for 30 seconds, with data acquisition during the elongation stage on the green channel.

The next series concerns Jurkat cells. Kind of series: Cell number quantitation in cell suspensions. To be noted: 10 uM final dye, 30 minutes at 37° C., 440,000 to 860 cells per well. It counts as cell-based. The procedure:
The data in FIG. 7A were obtained under the following conditions: compound 5 or 7 at 20 uM in Hank's Balanced Salt Solution (HBSS) was pipetted into optical bottom black 96 well tissue culture plates at 50 μL per well. Two-fold serial dilutions of Jurkat cells in suspension culture were prepared in Hank's Balanced Salt Solution (HBSS) and pipetted into black 96 well plates at 50 μL per well to obtain a dilution curve of 440,000 to 860 cells per well, and a final dye concentration of 10 uM. Plates were incubated for 30 minutes at 37° C. in a 5% CO2 incubator, and fluorescence was read at 468/507 nm in a Molecular Devices Gemini XS fluorescent plate reader. Triplicate samples were averaged and background fluorescence (no cells) was subtracted. Fluorescence values were plotted against the DNA amount (ng/well). The R^2 values for linear regression are shown next to each curve. For comparison, cell numbers were quantitated using the CyQUANT NF Cell Proliferation Assay Kit (Life Technologies) according to the kit manual.

Series [6] has as its system GAPDH cDNA from Jurkat cell purified mRNA. Kind of series: Real-time PCR with cDNA. The conditions noted are these: 0.34 uM dye. How it is done:
Compound 7 and related dyes can be used in real time PCR experiments to monitor amplification of target cDNA. In FIG. 9, serial dilutions of total cDNA generated from Jurkat cell purified mRNA were added to PCR reaction mixes containing 0.34 uM compound 7 and real time PCR was performed.
The data in FIG. 9 were collected under the following conditions: mRNA was purified from 4×10^6 Jurkat cells using Qiagen's RNeasy Kit and cDNA was then generated using oligo-dT primers and the ProtoScript First Strand cDNA Synthesis Kit (New England BioLabs). Serial 1:2 dilutions of the cDNA in water were prepared and added to PCR reactions consisting of a final concentration of 25 mM Tris-HCl (pH 8.6), 5 mM KCl, 10 mM (NH4)2SO4, 2 mM MgCl2, 2.5% glycerol, 5% DMSO, 200 uM dNTPs (New England BioLabs), 0.01% Tween-20, non-acetylated BSA (Sigma), 500 nM GAPDH Forward primer (5′-GAAGGTGAAGGTCGGAGTC-3′), 500 nM GAPDH Reverse primer (5′-[…]-3′) (Integrated DNA Technologies), 1 U Taq polymerase (Syzygy) modified using a HotStart Polymerase Modification Kit (Biotium, Inc.) and 0.34 uM compound 7. One microliter cDNA was added to each 20 ul reaction. Real time PCR was performed using the RotorGeneQ as described for FIG. 8.
On the technique in general: Real-time PCR tracks product formation cycle by cycle.

For a further series, the system named is adherent HeLa cells. Briefly: Cell number quantitation in adherent cell cultures. It counts as cell-based. The conditions noted are these: 10 uM, 30 minutes at 37° C., 50,000 to 100 cells per well. The procedure: The data in FIG. 7B was obtained under the following conditions: adherent HeLa cells were seeded at densities ranging between 50,000 and 100 cells per well in optical bottom black 96 well tissue culture plates and allowed to adhere overnight at 37° C. in a 5% CO2 incubator. On the day after seeding, the cells were washed with HBSS and incubated in HBSS containing Dye 5 or Dye 7 at 10 uM for 30 minutes at 37° C. Fluorescence was read at 468/507 nm in a Molecular Devices Gemini XS fluorescent plate reader. Triplicate samples were averaged and background fluorescence (no cells) was subtracted. Fluorescence values were plotted against the DNA amount (ng/well). The R^2 values for linear regression are shown next to each curve. For comparison, cell numbers were quantitated using the CyQUANT NF Cell Proliferation Assay Kit (Life Technologies according to the kit manual.

The mark [7] stands for this setting: 0.5 μM dye concentration, DNA 0.015-2 ng.
The mark [8] stands for this setting: in the presence of dsDNA, 10 mM pH 7.4 Tris buffer, room temperature.

As for `CC(=N)NCc1ccc2c(c1)C(C)(C)C(=CC(C)=CC1=[N+](C)c3ccc(CNC(C)=N)cc3C1(C)C)N2C` [Compound 36], the photostability entry in series [1] is recorded as “high”. In addition, the “staining of nuclei of fixed cells” value in [2] is reported as “good specificity”. The molecule further gave an emission wavelength with calf thymus dsDNA of around 565 nm.

Consider `CN(C)CCCN(CCCN(C)C)c1cc(C=C2Sc3ccccc3N2C)c2ccccc2[n+]1-c1ccccc1` [PicoGreen, reference compound], for which the “linearity of fluorescence at lower DNA concentrations” value in the series with calf thymus DNA (setting [7]) was “lower than that of compound 7”.

With `CCCN(CCCNC1=CC(=Cc2sc3cccc4c3[n+]2CCC4)c2ccccc2N1c1ccccc1)C(=N)N` [compound 8], the “staining of nuclei of live cells” value in the series on live HeLa cells is on record as “can specifically stain the nuclei”. Besides, the “staining of nuclei of fixed cells” value in series [3] was “can specifically stain the nuclei”.

Turning to `CCCN(CCCNC1=CC(=Cc2sc3cccc4c3[n+]2CCC4)c2ccccc2N1c1ccccc1)C1=NCCN1` [compound 7], the “staining of nuclei of live cells” value in the series on live HeLa cells is “can specifically stain the nuclei”. In the series on calf thymus DNA (setting [7]), the “sensitivity (slope of the titration curve) compared to PicoGreen” value is listed as “more sensitive than PicoGreen”. Besides, in series [3], the “staining of nuclei of fixed cells” value is “can specifically stain the nuclei”. The “effect on HRM analysis resolution” value in series [4] is listed as “improves HRM analysis resolution”. Moreover, in series [5], the “Ct value (in words)” value was “early”, the “amplification of target amplicon” value is reported as “efficient amplification” and the endpoint fluorescent signal entry is “high”. For the same molecule, the “quantitation of cell numbers in cell suspensions” value in the series with Jurkat cells is given as “can be used to quantitate cell numbers”. For the same molecule, the “amplification of target amplicon from serial cDNA dilutions” value in series [6] is “efficient amplification”. The “quantitation of cell numbers in adherent cell cultures” value with adherent HeLa cells is given as “can be used to quantitate cell numbers”.

`CCCN(CCCNC1=CC(=Cc2sc3ccccc3[n+]2C)c2ccccc2N1c1ccccc1)C(=N)N` [compound 5]: the “staining of nuclei of live cells” value in the series with live HeLa cells is listed as “can specifically stain the nuclei”. In addition, the “DNA amount range of linearity of fluorescence” value with calf thymus DNA (1 uM concentration (FIG. 4B)) lay in the range of 0.05 to 250 ng. In the series with calf thymus DNA (1 mM dye concentration), the “DNA amount range over which fluorescence is linear” value lay within 0.04 to 250 ng. Besides, the “staining of nuclei of fixed cells” value in series [3] is “can specifically stain the nuclei”. In addition, the “quantitation of cell numbers in cell suspensions” value with Jurkat cells was “can be used to quantitate cell numbers”. In addition, the “quantitation of cell numbers in adherent cell cultures” value in the series with adherent HeLa cells is on record as “can be used to quantitate cell numbers”. Further, in the series with calf thymus dsDNA (10 mM pH 7.4 Tris, with DNA), the “fluorescence upon DNA binding” value is on record as “highly fluorescent”. In the series on calf thymus dsDNA (setting [8]), the absorption maximum is reported as around 470 nm and the emission maximum is recorded as around 520 nm.
